Source: US20160257697A1, “THIOPHENE-SUBSTITUTED TETRACYCLIC COMPOUNDS AND METHODS OFUSE THEREOF FOR THE TREATMENT OF VIRAL DISEASES” (priority 2013, published 2016)
Where two headings read alike, the source gives them in different places.

What was measured:
Experiment in all cases: microbe, parasite or virus in culture
Format in all cases: cell-based, Hepatitis C virus (HCV)
Conditions in all cases: Replicon Assay A
HCV replicon 1A = test system: HCV replicon 1A
How it was run: (§1)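 HCV replicon RNA levels were quantified by TaqMan RT-PCR after 3-day compound exposure (0.5% DMSO, 5% FBS). Cyclophilin RNA, co-amplified in the same reaction, served as endogenous control; Ct values were converted to RNA amounts using linear regression standard curves.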

HCV replicon 1AY93H = test system: HCV replicon 1AY93H
How it was run: as §1

HCV replicon 2B = test system: HCV replicon 2B
How it was run: as §1

[1] = Hepatitis C virus, read-out: 1A Y93H IC50 (nM), replicon 1AY93H
[2] = Hepatitis C virus, read-out: 2B IC50 (nM), replicon 2B
[3] = read-out: 1A Y93H IC50, HCV replicon 1A Y93H
[4] = read-out: 2B IC50, HCV replicon 2B
[5] = read-out: 1A Y93H IC50, replicon 1AY93H

`COC(=O)N[C@H](C(=O)N1CCC[C@H]1c1ncc(-c2cc(F)c3c(c2)OC(c2ccc(C(C)(C)C)s2)n2c-3cc3cc(-c4cnc([C@@H]5CCCN5C(=O)[C@@H](NC(=O)OC)C(C)C)[nH]4)ccc32)[nH]1)C(C)C` (single isomer, unassigned) [Compound 62] was tested, and the IC50 (HCV replicon 1A; Hepatitis C virus, replicon 1A) was 0.0014 nM, the IC50 (HCV replicon 1AY93H; [1]) was 0.69 nM and the IC50 (HCV replicon 2B; [2]) was 2.88 nM.
With `COC(=O)N[C@H](C(=O)N1C[C@H](F)C[C@H]1c1nc(-c2ccc3c(c2)OC(c2ccc(C)s2)n2c-3cc3cc(-c4c[nH]c([C@@H]5C[C@H]6C[C@H]6N5C(=O)[C@@H](NC(=O)OC)C5CCOCC5)n4)ccc32)c[nH]1)C1CCOCC1` (single isomer, unassigned) [Compound 731] the IC50 (HCV replicon 1A; HCV replicon 1A) was 0.024 nM, the IC50 (HCV replicon 1AY93H; [3]) was 0.026 nM and the IC50 (HCV replicon 2B; [4]) was 0.021 nM.
For `COC(=O)NC(C(=O)N1CCC[C@H]1c1ncc(-c2ccc3c(c2)cc2n3C(c3ccc(C(C)C)s3)Oc3cc(-c4cnc([C@@H]5CCCN5C(=O)[C@@H](NC(=O)OC)C(C)C)[nH]4)cc(F)c3-2)[nH]1)C1C[C@@H](C)O[C@@H](C)C1` (single isomer, unassigned) [Compound 232], the IC50 (HCV replicon 1A; replicon 1A) was 0.0027 nM, the IC50 (HCV replicon 1AY93H; [5]) was 0.2 nM and the IC50 (HCV replicon 2B; read-out: 2B IC50, replicon 2B) was 0.63 nM.
Work on `[2H]C(C)(C)C(NC(=O)OC)C(=O)N1CCC[C@H]1c1ncc(-c2cc(F)c3c(c2)OC(c2ccc(C4CC4)s2)n2c-3cc3cc(-c4cnc([C@@H]5CCCN5C(=O)[C@@H](NC(=O)OC)C(C)C)[nH]4)ccc32)[nH]1` (single isomer, unassigned) [Compound 31] yielded an IC50 (HCV replicon 1A; replicon 1A) of 0.002 nM, an IC50 (HCV replicon 1AY93H; [5]) of 0.02 nM and an IC50 (HCV replicon 2B; read-out: 2B IC50, replicon 2B) of 0.083 nM.
`CCc1ccc(C2Oc3cc(-c4cnc([C@@H]5C[C@H]6C[C@H]6N5C(=O)[C@@H](NC(=O)OC)C(C)C)[nH]4)cc(F)c3-c3cc4cc(-c5cnc([C@@H]6C[C@H]7C[C@H]7N6C(=O)[C@@H](NC(=O)OC)C(C)C)[nH]5)ccc4n32)s1` (single isomer, unassigned) [Compound 50] showed an IC50 (HCV replicon 1A; Hepatitis C virus, replicon 1A) of 0.0014 nM, an IC50 (HCV replicon 1AY93H; [1]) of 0.0284 nM and an IC50 (HCV replicon 2B; [2]) of 1.39 nM.
Work on `COC(=O)NC(C(=O)N1CCC[C@H]1c1ncc(-c2cc(F)c3c(c2)OC(c2ccc(C4CC4)s2)n2c-3cc3cc(-c4cnc([C@@H]5CCCN5C(=O)[C@@H](NC(=O)OC)C(C)C)[nH]4)ccc32)[nH]1)C1CCOC(C)(C)C1` (single isomer, unassigned) [Compound 217] yielded an IC50 (HCV replicon 1A; replicon 1A) of 0.003 nM, an IC50 (HCV replicon 1AY93H; [5]) of 0.18 nM and an IC50 (HCV replicon 2B; read-out: 2B IC50, replicon 2B) of 0.39 nM.
`COCCc1ccc(C2Oc3cc(-c4cnc([C@@H]5CCCN5C(=O)[C@@H](NC(=O)OC)C(C)C)[nH]4)cc(F)c3-c3cc4cc(-c5cnc([C@@H]6CCCN6C(=O)[C@@H](NC(=O)OC)C(C)C)[nH]5)ccc4n32)s1` (single isomer, unassigned) [Compound 81] showed an IC50 (HCV replicon 1A; Hepatitis C virus, replicon 1A) of 0.0014 nM, an IC50 (HCV replicon 1AY93H; [1]) of 0.41 nM and an IC50 (HCV replicon 2B; [2]) of 1.32 nM.
`COC(=O)N[C@H](C(=O)N1CCC[C@H]1c1nc(-c2ccc3c(c2)OC(c2ccc(C)s2)n2c-3cc3cc(-c4c[nH]c([C@@H]5NCCN5C(=O)[C@@H](NC(=O)OC)C(C)C)n4)ccc32)c[nH]1)C(C)C` (single isomer, unassigned) [Compound 702] gave an IC50 (HCV replicon 1A; HCV replicon 1A) of 0.0074 nM, an IC50 (HCV replicon 1AY93H; [3]) of 3.85 nM and an IC50 (HCV replicon 2B; [4]) of 3.98 nM.
Work on `CCc1ccc(C2Oc3cc(-c4cnc([C@@H]5CCCN5C(=O)[C@@H](NC(=O)OC)C(C)C)[nH]4)cc(F)c3-c3cc4cc(-c5cnc([C@@H]6C[C@H]7C[C@H]7N6C(=O)C(NC(=O)OC)C6CCOC(C)(C)C6)[nH]5)ccc4n32)s1` (single isomer, unassigned) [Compound 196] yielded an IC50 (HCV replicon 1A; replicon 1A) of 0.0018 nM, an IC50 (HCV replicon 1AY93H; [5]) of 0.062 nM and an IC50 (HCV replicon 2B; read-out: 2B IC50, replicon 2B) of 0.55 nM.
In the case of `COC(=O)N[C@H](C(=O)N1C2C[C@@H]2C[C@H]1c1nc(-c2ccc3c(c2)cc2n3C(c3ccc(Cl)s3)Oc3cc(-c4c[nH]c([C@@H]5C[C@H]6C[C@H]6N5C(=O)[C@@H](NC(=O)OC)C(C)C)n4)ccc3-2)c[nH]1)C(C)C` (mixture of isomers) [Compound 710], the IC50 (HCV replicon 1A; Hepatitis C virus, HCV replicon 1A) is reported as 0.05 nM, the IC50 (HCV replicon 1AY93H; Hepatitis C virus, read-out: 1A Y93H IC50, HCV replicon 1A Y93H) is reported as 0.2 nM and the IC50 (HCV replicon 2B; Hepatitis C virus, read-out: 2B IC50, HCV replicon 2B) is reported as 1.08 nM.
Molecule `COC(=O)NC(C(=O)N1CCC[C@H]1c1ncc(-c2ccc3c(c2)cc2n3C(c3cc4nccnc4s3)Oc3cc(-c4cnc([C@@H]5CCCN5C(=O)[C@@H](NC(=O)OC)C(C)C)[nH]4)cc(F)c3-2)[nH]1)C1C[C@@H](C)O[C@@H](C)C1` (single isomer, unassigned) [Compound 371] has an IC50 (HCV replicon 1A; Hepatitis C virus, replicon 1A) of 0.0042 nM, an IC50 (HCV replicon 1AY93H; [5]) of 0.553 nM and an IC50 (HCV replicon 2B; read-out: 2B IC50, replicon 2B) of 0.0627 nM.
`COC(=O)N[C@H](C(=O)N1CCC[C@H]1c1ncc(-c2ccc3c(c2)OC(c2cc(C)c(C)s2)n2c-3cc3cc(-c4cnc([C@@H]5C[C@H]6C[C@H]6N5C(=O)[C@@H](NC(=O)OC)C(C)C)[nH]4)ccc32)[nH]1)C(C)C` (single isomer, unassigned) [Compound 501] showed an IC50 (HCV replicon 1A; HCV replicon 1A) of 0.024 nM, an IC50 (HCV replicon 1AY93H; [3]) of 4.35 nM and an IC50 (HCV replicon 2B; [4]) of 8.37 nM.
`COC(=O)NC(C(=O)N1CCCC1c1ncc(-c2cc(F)c3c(c2)OC(c2ccc(C4CCC4)s2)n2c-3cc3cc(-c4cnc(C5CCCN5C(=O)C(NC(=O)OC)C5CC(C)OC(C)C5)[nH]4)ccc32)[nH]1)C(C)C` (single isomer, unassigned) [Compound 373] was tested, and the IC50 (HCV replicon 1A; replicon 1A) was 0.001 nM, the IC50 (HCV replicon 1AY93H; replicon 1AY93H, read-out: 1A Y93H IC50) was 0.248 nM and the IC50 (HCV replicon 2B; replicon 2B, read-out: 2B IC50) was 0.156 nM.
